From ChEMBL document CHEMBL1133559, “4-Aryl-2,4-dioxobutanoic acid inhibitors of HIV-1 integrase and viral replication in cells” (J Med Chem, 2000)
pIC50: −log10 of the molar value. Values joined by “and” are separate entries in the source; they are usually repeats but may differ in a detail not shown here. Identical values can stand only once.

Key:
[1] = biological target: T1, Human immunodeficiency virus type 1 integrase (Human immunodeficiency virus 1, UniProt Q7ZJM1)
Description: Inhibition of recombinant HIV-1 Integrase in strand transfer enzyme assay.

[2] = system: Human immunodeficiency virus 1; test: In vitro inhibition of (HIV-1 IIIB) replication.; type: functional; details: for IC95: Human immunodeficiency virus 1, read-out: CIC95
[3] = biological target: T1, Human immunodeficiency virus type 1 integrase; test: Inhibitory activity was determined against recombinant HIV-1 Integrase (0.1 uM) in strand transfer enzyme assay

T1 sequence (Q7ZJM1 whole entry): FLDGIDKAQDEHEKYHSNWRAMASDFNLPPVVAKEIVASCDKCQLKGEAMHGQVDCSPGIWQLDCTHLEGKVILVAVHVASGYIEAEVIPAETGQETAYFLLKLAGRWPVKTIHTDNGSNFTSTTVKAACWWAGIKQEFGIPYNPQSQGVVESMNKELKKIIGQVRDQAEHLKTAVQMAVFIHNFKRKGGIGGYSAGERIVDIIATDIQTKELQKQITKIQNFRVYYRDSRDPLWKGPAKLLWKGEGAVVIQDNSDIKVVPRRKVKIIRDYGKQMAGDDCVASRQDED

pIC50 [1]	pIC50 [3]	SMILES	IC95 [2] [nM]	CIC95 [2] [µM]
6.82		COc1ccc(C(=O)CC(=O)C(=O)O)cc1Cc1ccccc1	1830	
> 7.00		COc1ccc(Cc2ccccc2)cc1C(=O)CC(=O)C(=O)O	620	
6.00 and 6.30		O=C(O)C(=O)CC(=O)c1cccc(Cc2ccc(Cl)cc2)c1	25000	
> 7.00		O=C(O)C(=O)CC(=O)c1cccc(Cc2ccccc2F)c1	520	
> 7.00		O=C(O)C(=O)CC(=O)c1cccc(Cc2cccc(Cl)c2)c1	940	
> 7.00		O=C(O)C(=O)CC(=O)c1cccc(Cc2ccc(F)cc2)c1	690	
> 7.00		O=C(O)C(=O)CC(=O)c1cccc(Cc2ccccc2Cl)c1	620	
> 7.00		O=C(O)C(=O)CC(=O)c1cccc(Cc2ccccc2)c1	1110	
6.60		O=C(O)C(=O)CC(=O)c1cccc(Cc2cccc(F)c2)c1	2080	
6.85		COc1cc(Cc2ccccc2)cc(C(=O)CC(=O)C(=O)O)c1	2080	

The remaining lines, values behind:

SMILES	pIC50 [1]	pIC50 [3]	IC95 [2] [nM]	CIC95 [2] [µM]
O=C(O)C(=O)CC(=O)c1ccsc1Cc1ccccc1	6.74		25000	
CC(C)(C)NC(=O)[C@@H]1CN(Cc2cccnc2)CCN1C[C@@H](O)C[C@@H](Cc1ccccc1)C(=O)N[C@H]1c2ccccc2C[C@H]1O [INDINAVIR]			55	
O=C(O)C(=O)CC(=O)c1ccccc1Cc1ccccc1	5.25		> 50000	
CC(C)Oc1ccc(Cc2ccccc2)cc1C(=O)CC(=O)C(=O)O		> 7.00	100	
O=C(O)C(=O)CC(=O)c1cccn1Cc1ccccc1	6.66		41600	
CCOc1ccc(Cc2ccccc2)cc1C(=O)CC(=O)C(=O)O	> 7.00		150	0.25
O=C(O)C(=O)CC(=O)c1ccn(Cc2ccccc2)c1	6.30 and 6.22		3000	
O=C(O)C(=O)CC(=O)c1csc(Cc2ccccc2)c1	6.80 and 7.00		2500	
O=C(O)C(=O)CC(=O)c1cccn1Cc1ccc(F)cc1			9600	
O=C(O)C(=O)CC(=O)c1ccc(Cc2ccccc2)s1	6.30		12500	
